# Data: ChEMBL document CHEMBL1153244, “Tetrasubstituted pyridines as potent and selective AKT inhibitors: Reduced CYP450 and hERG inhibition of aminopyridines” (Bioorg Med Chem Lett, 2010)
# Key:
# BT-474 = test: Antiproliferative activity against human BT474 cells; assay type: functional, cell-based
# [1] = target: RAC-beta serine/threonine-protein kinase (Homo sapiens, UniProt P31751); test: Inhibition of human AKT2
# [2] = target: RAC-gamma serine/threonine-protein kinase (Homo sapiens, UniProt Q9Y243); test: Inhibition of human AKT3
# [3] = target: RAC-alpha serine/threonine-protein kinase (Homo sapiens, UniProt P31749); test: Inhibition of human AKT1
# Cytochrome P450 3A4 = Cytochrome P450 3A4 (Homo sapiens, UniProt P08684); test: Inhibition of CYP3A4; assay type: ADME
# Mus musculus [4] = test: Antitumor activity against human BT474 cells xenografted in mouse assessed as reduction in tumor volume at 30 mg/kg, ip; parameters: scale not given: the % may be the effect or the level left; conditions: route intraperitoneal
# [5] = target: T1, Voltage-gated inwardly rectifying potassium channel KCNH2 (Homo sapiens, UniProt Q12809); test: Inhibition of human ERG
# Mus musculus [6] = test: Antitumor activity against human BT474 cells xenografted in ip dosed mouse assessed as inhibition of tumor growth; conditions: BT-474
# [7] = target: T1, Voltage-gated inwardly rectifying potassium channel KCNH2; test: Inhibition of human ERG relative to control
# [8] = Clearance in dog at 3.1 mg, iv; assay type: ADME, organism-based, Canis lupus familiaris; conditions: in vivo
# Rattus norvegicus [9] = test: Dose normalized AUC (0 to t) in rat at 2.4 mg, iv; assay type: ADME, organism-based; conditions: in vivo
# Mus musculus [10] = test: Dose normalized AUC (0 to t) in mouse at 2.2 mg, iv; assay type: ADME, organism-based; conditions: in vivo
# [11] = Clearance in monkey at 3.0 mg, iv; assay type: ADME, organism-based, Macaca mulatta; conditions: rhesus monkey, in vivo
# [12] = Clearance in rat at 2.4 mg, iv; assay type: ADME, organism-based; conditions: in vivo
# Rhesus monkey [13] = test: Dose normalized AUC (0 to t) in monkey at 3.0 mg, iv; assay type: ADME, organism-based, Macaca mulatta; conditions: in vivo
# [14] = Clearance in mouse at 2.2 mg, iv; assay type: ADME, organism-based; conditions: in vivo
# Canis familiaris [15] = test: Dose normalized AUC (0 to t) in dog at 3.1 mg, iv; assay type: ADME, organism-based, Canis lupus familiaris; conditions: in vivo
# [16] = Clearance in rat at 10.6 mg, iv; assay type: ADME, organism-based; conditions: in vivo
# Rattus norvegicus [17] = test: Dose normalized AUC (0 to t) in rat at 10.6 mg, iv; assay type: ADME, organism-based; conditions: in vivo
# Rhesus monkey [18] = test: Dose normalized AUC (0 to t) in monkey at 3.1 mg, iv; assay type: ADME, organism-based, Macaca mulatta; conditions: in vivo
# [19] = Clearance in monkey at 3.1 mg, iv; assay type: ADME, organism-based, Macaca mulatta; conditions: rhesus monkey, in vivo
# Canis familiaris [20] = test: Dose normalized AUC (0 to t) in dog at 2.4 mg, iv; assay type: ADME, organism-based, Canis lupus familiaris; conditions: in vivo
# [21] = Clearance in dog at 2.4 mg, iv; assay type: ADME, organism-based, Canis lupus familiaris; conditions: in vivo
# Mus musculus [22] = test: Dose normalized AUC (0 to t) in mouse at 9.6 mg, ip; assay type: ADME, organism-based; conditions: in vivo
# Sequence of RAC-beta serine/threonine-protein kinase (P31751 whole entry): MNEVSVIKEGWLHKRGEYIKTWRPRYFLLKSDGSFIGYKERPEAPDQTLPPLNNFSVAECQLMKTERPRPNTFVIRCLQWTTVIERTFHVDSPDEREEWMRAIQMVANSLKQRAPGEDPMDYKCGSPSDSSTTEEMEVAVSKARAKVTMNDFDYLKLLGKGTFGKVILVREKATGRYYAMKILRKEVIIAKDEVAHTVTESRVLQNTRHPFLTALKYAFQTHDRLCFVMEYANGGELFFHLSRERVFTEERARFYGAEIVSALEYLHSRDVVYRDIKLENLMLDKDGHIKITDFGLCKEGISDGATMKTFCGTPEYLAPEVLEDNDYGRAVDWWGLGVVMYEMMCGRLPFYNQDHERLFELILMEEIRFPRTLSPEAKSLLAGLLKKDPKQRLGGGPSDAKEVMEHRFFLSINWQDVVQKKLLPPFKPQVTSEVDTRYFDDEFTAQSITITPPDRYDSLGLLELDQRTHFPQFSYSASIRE
# T1 sequence (Q12809 whole entry): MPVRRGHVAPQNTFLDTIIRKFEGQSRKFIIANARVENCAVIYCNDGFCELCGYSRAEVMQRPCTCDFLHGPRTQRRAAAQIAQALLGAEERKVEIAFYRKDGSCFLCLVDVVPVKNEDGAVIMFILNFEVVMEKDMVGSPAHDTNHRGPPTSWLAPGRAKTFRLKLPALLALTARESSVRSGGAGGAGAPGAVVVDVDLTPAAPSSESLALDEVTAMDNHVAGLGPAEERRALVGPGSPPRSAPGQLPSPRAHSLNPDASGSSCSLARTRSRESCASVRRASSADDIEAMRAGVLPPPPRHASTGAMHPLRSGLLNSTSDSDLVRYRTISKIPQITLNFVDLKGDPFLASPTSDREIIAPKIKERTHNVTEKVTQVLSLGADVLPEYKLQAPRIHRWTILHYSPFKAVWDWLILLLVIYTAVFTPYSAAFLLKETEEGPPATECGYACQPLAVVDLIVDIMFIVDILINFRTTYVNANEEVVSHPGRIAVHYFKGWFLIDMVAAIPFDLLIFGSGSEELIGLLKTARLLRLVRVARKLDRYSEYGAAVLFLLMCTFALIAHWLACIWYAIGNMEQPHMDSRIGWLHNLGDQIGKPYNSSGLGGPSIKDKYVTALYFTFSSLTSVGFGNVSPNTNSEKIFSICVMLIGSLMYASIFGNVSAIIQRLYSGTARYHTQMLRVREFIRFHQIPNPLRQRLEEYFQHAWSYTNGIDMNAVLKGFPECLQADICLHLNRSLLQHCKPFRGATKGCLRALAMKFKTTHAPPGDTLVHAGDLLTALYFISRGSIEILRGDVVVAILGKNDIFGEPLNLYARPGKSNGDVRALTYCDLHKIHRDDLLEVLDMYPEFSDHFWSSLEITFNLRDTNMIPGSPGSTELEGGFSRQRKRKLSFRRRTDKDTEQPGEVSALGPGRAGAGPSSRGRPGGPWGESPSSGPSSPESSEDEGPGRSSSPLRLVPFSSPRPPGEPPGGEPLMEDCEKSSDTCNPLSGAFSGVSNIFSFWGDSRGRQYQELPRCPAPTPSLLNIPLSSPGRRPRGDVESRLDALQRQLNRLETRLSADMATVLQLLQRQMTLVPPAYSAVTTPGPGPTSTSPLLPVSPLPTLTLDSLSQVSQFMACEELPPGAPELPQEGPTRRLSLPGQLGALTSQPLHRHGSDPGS
# Sequence of RAC-gamma serine/threonine-protein kinase (Q9Y243 whole entry): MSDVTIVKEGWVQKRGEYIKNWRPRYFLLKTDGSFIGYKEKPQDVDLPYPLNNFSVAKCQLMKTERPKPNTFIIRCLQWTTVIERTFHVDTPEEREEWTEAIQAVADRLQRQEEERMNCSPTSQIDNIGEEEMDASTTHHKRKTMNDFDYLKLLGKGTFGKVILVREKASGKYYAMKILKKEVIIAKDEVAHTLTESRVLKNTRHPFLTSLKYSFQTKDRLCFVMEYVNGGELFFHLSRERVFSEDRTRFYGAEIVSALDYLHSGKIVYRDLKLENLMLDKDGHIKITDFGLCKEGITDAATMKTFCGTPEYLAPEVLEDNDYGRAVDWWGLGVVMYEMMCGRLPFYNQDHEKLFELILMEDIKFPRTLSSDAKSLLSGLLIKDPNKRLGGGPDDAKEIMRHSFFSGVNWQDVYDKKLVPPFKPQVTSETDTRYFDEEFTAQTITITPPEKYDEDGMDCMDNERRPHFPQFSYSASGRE
# Sequence of Cytochrome P450 3A4 (P08684 whole entry): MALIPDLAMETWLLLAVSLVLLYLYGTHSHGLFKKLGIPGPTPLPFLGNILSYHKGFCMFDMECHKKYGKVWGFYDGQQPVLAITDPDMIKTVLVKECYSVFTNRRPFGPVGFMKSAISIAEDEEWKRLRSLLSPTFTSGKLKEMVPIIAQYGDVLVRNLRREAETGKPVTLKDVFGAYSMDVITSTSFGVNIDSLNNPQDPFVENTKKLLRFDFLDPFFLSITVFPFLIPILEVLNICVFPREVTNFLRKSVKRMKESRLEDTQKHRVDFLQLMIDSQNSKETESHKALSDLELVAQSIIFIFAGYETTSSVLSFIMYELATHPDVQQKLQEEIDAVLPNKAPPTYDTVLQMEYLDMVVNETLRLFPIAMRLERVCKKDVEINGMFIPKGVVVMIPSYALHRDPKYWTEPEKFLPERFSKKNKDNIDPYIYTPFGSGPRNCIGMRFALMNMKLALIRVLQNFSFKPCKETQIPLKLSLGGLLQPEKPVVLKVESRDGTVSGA
# Sequence of RAC-alpha serine/threonine-protein kinase (P31749 whole entry): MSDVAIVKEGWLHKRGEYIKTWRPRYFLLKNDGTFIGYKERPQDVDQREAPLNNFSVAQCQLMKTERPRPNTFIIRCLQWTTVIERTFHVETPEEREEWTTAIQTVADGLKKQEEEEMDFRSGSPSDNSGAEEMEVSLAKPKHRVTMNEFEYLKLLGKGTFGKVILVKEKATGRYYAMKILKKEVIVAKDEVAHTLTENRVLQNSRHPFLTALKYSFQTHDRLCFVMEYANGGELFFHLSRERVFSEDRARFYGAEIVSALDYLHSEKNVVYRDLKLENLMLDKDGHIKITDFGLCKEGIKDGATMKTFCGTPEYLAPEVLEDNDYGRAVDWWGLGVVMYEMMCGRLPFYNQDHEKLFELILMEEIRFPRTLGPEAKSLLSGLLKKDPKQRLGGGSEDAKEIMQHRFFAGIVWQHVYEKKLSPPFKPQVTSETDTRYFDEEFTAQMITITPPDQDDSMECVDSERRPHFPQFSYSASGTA
SMILES,IC50 (BT-474) [nM],IC50 [1] [nM],IC50 [2] [nM],IC50 [3] [nM],IC50 (Cytochrome P450 3A4) [nM],other results
Cc1occc1-c1nc(N)c(OC[C@@H](N)Cc2c[nH]c3ccccc23)cc1-c1ccc2[nH]nc(C)c2c1,200,15,1,3,100,–
Cc1occc1-c1nc(N)c(OC[C@@H](N)Cc2c[nH]c3ccccc23)cc1-c1cc2c(C)n[nH]c2cn1,300,13,3,1,1300,–
CCNc1nc(-c2ccoc2)c(-c2cnc3[nH]nc(C)c3n2)cc1OC[C@@H](N)Cc1ccccc1,3900,6300,500,500,5000,–
Cc1nc(-c2ccoc2)c(-c2cnc3[nH]nc(C)c3n2)cc1OC[C@@H](N)Cc1c[nH]c2ccccc12,1260,63,10,3,630,–
Cc1n[nH]c2ncc(-c3cc(OC[C@@H](N)Cc4c[nH]c5ccccc45)cnc3-c3ccoc3)nc12,–,–,–,–,–,clearance [16]: 53.2 mL/min/kg; AUC (Rattus norvegicus [17]): 301 ng·h/mL/mg; AUC (Rhesus monkey [18]): 386 ng·h/mL/mg; clearance [19]: 39.1 mL/min/kg; AUC (Canis familiaris [20]): 425 ng·h/mL/mg; clearance [21]: 34.4 mL/min/kg; AUC (Mus musculus [22]): 96 ng·h/mL/mg
Cc1n[nH]c2ncc(-c3cc(OC[C@@H](N)Cc4c[nH]c5ccccc45)c(C#N)nc3-c3ccoc3)nc12,–,250,19,10,790,–

# Second part, led by results:
IC50 (BT-474) [nM],IC50 [1] [nM],IC50 [2] [nM],IC50 [3] [nM],IC50 (Cytochrome P450 3A4) [nM],SMILES,other results
310,19,2,1,5000,Cc1occc1-c1nc(N)c(OC[C@@H](N)Cc2c[nH]c3ccccc23)cc1-c1cnc2[nH]nc(C)c2n1,Activity (Mus musculus [4]): 59%; IC50 [5]: 10400 nM; Activity (Mus musculus [6]): Dose-dependent effect; inhibition (INH) [7]: 95%; clearance [8]: 25.3 mL/min/kg; AUC (Rattus norvegicus [9]): 303 ng·h/mL/mg; AUC (Mus musculus [10]): 170 ng·h/mL/mg; clearance [11]: 22.3 mL/min/kg; clearance [12]: 46 mL/min/kg; AUC (Rhesus monkey [13]): 853 ng·h/mL/mg; clearance [14]: 98.9 mL/min/kg; AUC (Canis familiaris [15]): 630 ng·h/mL/mg
470,15,2,1,1000,Cc1occc1-c1nc(N)c(OC[C@@H](N)Cc2c[nH]c3ccccc23)cc1-c1cnc2[nH]nc(C)c2c1,–
150,12,2,1,500,Cc1occc1-c1nc(N)c(OC[C@@H](N)Cc2c(Cl)[nH]c3ccccc23)cc1-c1cnc2[nH]nc(C)c2n1,–
> 10000,15,1,1,–,Cc1occc1-c1nc(N)c(OC[C@@H](N)Cc2c(C(N)=O)[nH]c3ccccc23)cc1-c1cnc2[nH]nc(C)c2n1,–
580,130,6,6,3200,Cc1occc1-c1nc(N)c(OC[C@@H](N)Cc2ccccc2)cc1-c1cnc2[nH]nc(C)c2n1,–
290,25,–,1,630,Cc1occc1-c1ncc(OC[C@@H](N)Cc2c[nH]c3ccccc23)cc1-c1cnc2[nH]nc(C)c2n1,inhibition (INH) [7]: 83.4%
2800,7,1,1,1600,Cc1occc1-c1nc(N)c(OC[C@@H](N)Cc2c(C#N)[nH]c3ccccc23)cc1-c1cnc2[nH]nc(C)c2n1,–
